Measured values: patent US20260273018A1, “PHARMACEUTICAL COMPOSITION CONTAINING SPECIFIC SELF-ASSEMBLING PEPTIDE RADA16 FOR TREATING OR PREVENTING LOWER GASTROINTESTINAL DISEASES SUCH AS INFLAMMATORY BOWEL DISEASE” (3-D Matrix, Ltd., priority 2021, published 2026)

Legend:
[1] = tested on: DSS-induced ulcerative colitis model; test: Transanal administration experiment on DSS-induced ulcerative colitis model mice (DAI, body weight, large intestine length, general condition); format: in vivo
Experimental: A mouse was made to drink an aqueous solution of 2.5 w/v % dextran sulfate sodium, and the efficacy of a specific peptide having the amino acid sequence indicated by SEQ ID NO 1 on the induced ulcerative colitis model is retrieved by Disease Activity Index. Similarly, Mucosta (registered trademark) and Selbex (registered trademark), which are therapeutic agents for duodenal ulcers, were administered alone or in combination with a peptide having the amino acid sequence indicated by SEQ ID NO 1, and Pentasa (registered trademark) and Rectabul (registered trademark), which are therapeutic agents for ulcerative colitis, were administered alone to compare and study the efficacy. Furthermore, the plasma and removed large intestine collected on the final day of the experiment were shipped to a test contractor. • Dextran sulfate sodium aqueous solution drink period (preparation of dextran sulfate sodium-induced ulcerative colitis model): • Nov. 16, 2019 to Nov. 25, 2019 • Administration period: Nov. 22, 2019 to Nov. 24, 2019 • Disease Activity Index (DAI: Evaluation of body weight, properties, and occult blood): • November 16, November 22, and Nov. 25, 2019 • Blood collected: Nov. 25, 2019 • Large intestine removed and length measured: • Nov. 25, 2019 • Experiment end date: Nov. 25, 2019
• Species: Mouse (SPF) • Strain: BALB/cAnNCrlCrlj • Source: Charles River Laboratories Japan (Atsugi Breeding Center) • Reason for selection of the test system: The mouse strain is widely used for toxicity and drug efficacy tests. • Sex and order (purchase) count: Male: 60 • Age at purchase: 9 weeks • Quarantine and habituation: Quarantine was carried out for six days from the date of animal purchase. During the quarantine period, the general condition was observed daily and body weight was measured on the 1st day (purchase date), 3rd day, and 7th day (quarantine end date). In addition, the habituation period was from the date of animal purchase to the day before the start of drinking the DSS aqueous solution, the general condition was also observed once a day after the quarantine period, and body weight was measured on a grouping day. • Age at the start of test substance administration: 11 weeks
• Administration method: Performed under anesthesia by inhalation of Japanese pharmacopeia isoflurane (Mylan Inc., hereinafter abbreviated as isoflurane). • If there is a clot of feces in the rectum, the animal was massaged, and the feces were removed as much as possible. • The administration solution was aspirated into a 1 mL polypropylene syringe cylinder (sterilized disposable product), inserted through the anus part using a mouse sonde (about 1 cm from the tip), and slowly administered transanally. […] Then, it was slowly pulled out and liquid that leaked from the anus part was wiped off. It should be noted that mixing was performed by lightly inverting by hand so that the test substance administration solution and the Rectabul administration solution would not have large bubbles as much as possible and so that the other comparative control substance administration solution would not foam up, and then each solution was aspirated into the syringe cylinder. • Amount of administration liquid: 0.7 mL • Reason for selection: The method of administration to mice is common and appropriate.
• Animal subjects: All test animals after grouping (excluding non-treatment group) • Model production period: Day 1-10 • Model production method: On the day that drinking of the DSS aqueous started (between 13:00 and 14:00), the water in the glass or polycarbonate water dispenser installed in the cage was changed to a DSS 2.5 w/v % aqueous solution, and the solution was freely ingested. […]

[2] = tested on: DSS-induced ulcerative colitis model, large intestine tissue; test: Histopathological evaluation of colon HE-stained specimens (Histological Colitis Score); format: in vivo, Mouse; conditions: compared to the negative control; scores only in the FIGURE
Experimental: A histopathological evaluation of the colon HE-stained specimens prepared in example 1 was performed. • 1. […] Histopathological evaluation • Blind evaluation of a pathology score was carried out in accordance with the scoring below for two pieces of the upper and lower parts of the large intestine for each specimen (36 pieces in total). Each score of (1), (2), (3) is multiplied by (4), and the total of these is defined as a “Histological Colitis Score.”^1) It should be noted that the lower part of the large intestine is located on the […], and • the upper part of the large intestine is located to the right thereof.
• 1) Dieleman LA., et al. Chronic experimental colitis induced by dextran sulfate sodium (DSS) is characterized by Th1 and Th2 cytokines. Clin Exp Immunol. 1998.

[3] = Day 10, transanal 0.7 mL/head on Days 7-9
[4] = observation period, considered due to progress of DSS colitis

RADARADARADARADA
average DAI score, Day 7 ([1]; Day 7 of DSS 2.5 w/v % drinking (first treatment day), group average, 0.7 mL/head transanal once a day on Days 7, 8, 9): 2.8 | cases scoring 1 "+" for fecal occult blood (visual) ([1]; Day 10): one case | length of the large intestine, end part of the ileum to just before the rectum (average) [1, 3]: 45.52 mm | length of the large intestine, end part of the ileum to the anus part (average) [1, 3]: 75.71 mm | average DAI score, Day 10 ([1]; Day 10 of DSS drinking, after transanal 0.7 mL/head on Days 7, 8, 9, group average): 2.8 | death ([1]; found dead on Day 10, cause considered progression of DSS-induced ulcerative colitis): a death was observed | general condition: anal bleeding (cases) ([1]; observation period): one case | general condition: black stool (cases) ([1]; observation period): one case | general condition: perianal hair stains (pale red) (cases) ([1]; observation period): one case | general condition: piloerection (cases) ([1]; observation period): one case | general condition: irregular respiration (cases) [1, 4]: one to three cases | general condition: small amount of defecation (cases of 5 animals) [1, 4]: one to three cases | DAI score on Day 10 compared to Day 7 ([1]; result in words, control group increased): did not increase compared to Day 7 | body weight loss on Day 10 compared to Day 7 ([1]; result in words, control group lost further weight): no further body weight loss was observed compared to Day 7 | histological score: suppression of intestinal tissue inflammation [2]: had an effect of suppressing intestinal tissue inflammation compared to the negative control
